# Results published in ChEMBL document CHEMBL5329212, “In situ click chemistry-based discovery of 1,2,3-triazole-derived diarylpyrimidines as novel HIV-1 NNRTIs by exploiting the tolerant region I in binding pocket” (Bioorg Med Chem, 2023).
# Columns and labels:
# [1] = tested on: Human immunodeficiency virus 1; test: Antiviral activity against HIV-1 harboring RT RES056 mutant infected in human MT4 cells assessed as protection against virus-induced cytopathic effect measured after 5 days by MTT assay; assay type: functional, organism-based; settings: Human immunodeficiency virus 1, MT4, 120 h
# [2] = tested on: Human immunodeficiency virus 1; test: Antiviral activity against HIV-1 harboring RT L100I mutant infected in human MT4 cells assessed as protection against virus-induced cytopathic effect measured after 5 days by MTT assay; assay type: functional, organism-based; settings: Human immunodeficiency virus 1, MT4, 120 h
# [3] = biological target: Human immunodeficiency virus type 1 reverse transcriptase (Human immunodeficiency virus 1, UniProt Q72547); test: Inhibition of HIV-1 reverse transcriptase incubated for 1 hrs in presence of biotin-labeled dNTPs by ELISA assay
# [4] = tested on: Human immunodeficiency virus 1; test: Antiviral activity against HIV-1 harboring RT K103N mutant infected in human MT4 cells assessed as protection against virus-induced cytopathic effect measured after 5 days by MTT assay; assay type: functional, organism-based; settings: Human immunodeficiency virus 1, MT4, 120 h
# [5] = tested on: Human immunodeficiency virus 1; test: Antiviral activity against HIV-1 harboring RT E138K mutant infected in human MT4 cells assessed as protection against virus-induced cytopathic effect measured after 5 days by MTT assay; assay type: functional, organism-based; settings: Human immunodeficiency virus 1, MT4, 120 h
# [6] = tested on: Human immunodeficiency virus 1; test: Antiviral activity against HIV-1 harboring RT Y188L mutant infected in human MT4 cells assessed as protection against virus-induced cytopathic effect measured after 5 days by MTT assay; assay type: functional, organism-based; settings: Human immunodeficiency virus 1, MT4, 120 h
# [7] = biological target: Human immunodeficiency virus type 1 reverse transcriptase (Human immunodeficiency virus 1) (UniProt Q72547); test: Inhibition of HIV-1 reverse transcriptase at 0.267 uM incubated for 1 hrs in presence of biotin-labeled dNTPs by ELISA assay relative to control
# [8] = tested on: Human immunodeficiency virus 1; test: Antiviral activity against HIV-1 harboring RT Y181C mutant infected in human MT4 cells assessed as protection against virus-induced cytopathic effect measured after 5 days by MTT assay; assay type: functional, organism-based; settings: Human immunodeficiency virus 1, MT4, 120 h
# [9] = tested on: Human immunodeficiency virus 1; test: Antiviral activity against wild type HIV-1 IIIB infected in human MT4 cells assessed as protection against virus-induced cytopathic effect measured after 5 days by MTT assay; assay type: functional, organism-based; settings: Human immunodeficiency virus 1, IIIB, MT4, 120 h
# [10] = Cytotoxicity against human MT4 cells assessed as reduction in cell viability measured after 5 days by MTT assay; assay type: toxicity, cell-based; settings: time 5 day
# [11] = tested on: Human immunodeficiency virus 1; test: Antiviral activity against HIV-1 harboring RT F227L/V106A double mutant infected in human MT4 cells assessed as protection against virus-induced cytopathic effect measured after 5 days by MTT assay; assay type: functional, organism-based; settings: Human immunodeficiency virus 1, MT4, 120 h
structure (smiles),measurement,setting,value
COC(=O)c1cccc(-n2cc(-c3ccc(Nc4nc(Oc5c(C)cc(C#N)cc5C)c5sccc5n4)cc3)nn2)c1,EC50,[1],≥ 154000 nM
same,EC50,[2],7400 nM
same,IC50,[3],650 nM
same,EC50,[4],1750 nM
same,EC50,[5],4980 nM
same,EC50,[6],58400 nM
same,inhibition,[7],42.4%
same,EC50,[8],24200 nM
same,EC50,[9],1260 nM
same,CC50 at 120 h,[10],> 218000 nM
same,EC50,[11],23300 nM
Cc1cc(C#N)cc(C)c1Oc1nc(Nc2ccc(-c3cn([C@H]4C[C@@H](n5cc(C)c(=O)[nH]c5=O)O[C@@H]4CO)nn3)cc2)nc2ccsc12,inhibition,[7],24.8%
COC(=O)CCCn1cc(-c2ccc(Nc3nc(Oc4c(C)cc(C#N)cc4C)c4sccc4n3)cc2)nn1,inhibition,[7],35.3%
Cc1cc(C#N)cc(C)c1Oc1nc(Nc2ccc(-c3cn(Cc4ccccc4C#N)nn3)cc2)nc2ccsc12,inhibition,[7],0.2%
Cc1cc(C#N)cc(C)c1Oc1nc(Nc2ccc(-c3cn(Cc4cccc(Cl)c4)nn3)cc2)nc2ccsc12,inhibition,[7],28.4%
Cc1cc(C#N)cc(C)c1Oc1nc(Nc2ccc(-c3cn(C[S+]([O-])c4ccccc4)nn3)cc2)nc2ccsc12 (configuration not stated),inhibition,[7],24.9%
Cc1cc(C#N)cc(C)c1Oc1nc(Nc2ccc(-c3cn(Cc4ccc(C#N)cc4)nn3)cc2)nc2ccsc12,inhibition,[7],36.9%
Cc1cc(C#N)cc(C)c1Oc1nc(Nc2ccc(-c3cn(Cc4ccc(S(C)(=O)=O)cc4)nn3)cc2)nc2ccsc12,EC50,[1],≥ 104000 nM
same,EC50,[2],2160 nM
same,IC50,[3],410 nM
same,EC50,[4],60 nM
same,EC50,[5],140 nM
same,EC50,[6],124000 nM
same,inhibition,[7],51.9%
same,EC50,[8],20000 nM
same,EC50,[9],40 nM
same,CC50 at 120 h,[10],> 206000 nM
same,EC50,[11],110000 nM
Cc1cc(C#N)cc(C)c1Oc1nc(Nc2ccc(-c3cn(-c4ccc(C(N)=O)cc4)nn3)cc2)nc2ccsc12,EC50,[1],> 164000 nM
same,EC50,[2],> 164000 nM
same,IC50,[3],800 nM
same,EC50,[4],250 nM
same,EC50,[5],920 nM
same,EC50,[6],> 164000 nM
same,inhibition,[7],66.9%
same,EC50,[8],> 164000 nM
same,EC50,[9],150 nM
same,CC50 at 120 h,[10],164000 nM
same,EC50,[11],> 164000 nM
Cc1cc(C#N)cc(C)c1Oc1nc(Nc2ccc(-c3cn(-c4ccc5c(c4)OCO5)nn3)cc2)nc2ccsc12,EC50,[1],> 223000 nM
same,EC50,[2],10900 nM
same,IC50,[3],1050 nM
same,EC50,[4],2010 nM
same,EC50,[5],7170 nM
same,EC50,[6],165000 nM
same,inhibition,[7],50%
same,EC50,[8],69400 nM
same,EC50,[9],1800 nM
same,CC50 at 120 h,[10],> 223000 nM
same,EC50,[11],77800 nM
Cc1ccc(Cn2cc(-c3ccc(Nc4nc(Oc5c(C)cc(C#N)cc5C)c5sccc5n4)cc3)nn2)cc1,inhibition,[7],3.5%
Cc1ccnc2c1NC(=O)c1cccnc1N2C1CC1 [NEVIRAPINE],EC50,[1],> 951000 nM
same,EC50,[2],1450 nM
same,EC50,[4],4930 nM
same,EC50,[5],130 nM
same,EC50,[6],> 951000 nM
same,EC50,[8],5660 nM
same,EC50,[9],100 nM
same,CC50 at 120 h,[10],> 951000 nM
same,EC50,[11],> 951000 nM
Cc1cc(C#N)cc(C)c1Oc1nc(Nc2ccc(-c3cn(-c4ccc(C(=O)O)cc4Cl)nn3)cc2)nc2ccsc12,inhibition,[7],17.3%
Cc1cc(C#N)cc(C)c1Oc1nc(Nc2ccc(-c3cn(CSc4ccccc4)nn3)cc2)nc2ccsc12,inhibition,[7],31.9%
Cc1cc(C#N)cc(C)c1Oc1nc(Nc2ccc(-c3cn(Cc4cccc5ccccc45)nn3)cc2)nc2ccsc12,inhibition,[7],35.9%
Cc1cc(C#N)cc(C)c1Oc1nc(Nc2ccc(-c3cn(Cc4ccccc4Cl)nn3)cc2)nc2ccsc12,inhibition,[7],23.1%
CCOC(=O)Cn1cc(-c2ccc(Nc3nc(Oc4c(C)cc(C#N)cc4C)c4sccc4n3)cc2)nn1,inhibition,[7],31.2%
Cc1cc(C#N)cc(C)c1Oc1nc(Nc2ccc(-c3cn(Cc4cccc([N+](=O)[O-])c4)nn3)cc2)nc2ccsc12,inhibition,[7],0.9%
COc1ccc(-n2cc(-c3ccc(Nc4nc(Oc5c(C)cc(C#N)cc5C)c5sccc5n4)cc3)nn2)cc1,inhibition,[7],28%
COc1ccccc1Cn1cc(-c2ccc(Nc3nc(Oc4c(C)cc(C#N)cc4C)c4sccc4n3)cc2)nn1,inhibition,[7],3.7%
Cc1cc(C#N)cc(C)c1Oc1nc(Nc2ccc(-c3cn(-c4cc5ccccc5s4)nn3)cc2)nc2ccsc12,inhibition,[7],0.1%
Cc1cc(C#N)cc(C)c1Oc1nc(Nc2ccc(-c3cn(Cc4ccc5ccccc5c4)nn3)cc2)nc2ccsc12,inhibition,[7],1.5%
Cc1cc(C#N)cc(C)c1Oc1nc(Nc2ccc(C#N)cc2)nc(N)c1Br [ETRAVIRINE],EC50,[1],70 nM
same,EC50,[2],10 nM
same,EC50,[4],4 nM
same,EC50,[5],20 nM
same,inhibition,[7],56.4%
same,CC50 at 120 h,[10],> 461000 nM
same,EC50,[11],30 nM
Cc1cc(C#N)cc(C)c1Oc1nc(Nc2ccc(-c3cn(-c4ccc(CO)cc4)nn3)cc2)nc2ccsc12,inhibition,[7],34.7%
Cc1cc(C#N)cc(C)c1Oc1nc(Nc2ccc(-c3cn(-c4ccc(C(C)(C)C)cc4)nn3)cc2)nc2ccsc12,inhibition,[7],23.9%
COC(=O)Cn1cc(-c2ccc(Nc3nc(Oc4c(C)cc(C#N)cc4C)c4sccc4n3)cc2)nn1,inhibition,[7],35.7%
Cc1cc(C#N)cc(C)c1Oc1nc(Nc2ccc(-c3cn(-c4cnc5ccccc5c4)nn3)cc2)nc2ccsc12,inhibition,[7],20%
Cc1cc(C#N)cc(C)c1Oc1nc(Nc2ccc(-c3cn(-c4ccc(C(=O)O)cc4)nn3)cc2)nc2ccsc12,inhibition,[7],38.2%
Cc1cc(C#N)cc(C)c1Oc1nc(Nc2ccc(-c3cn(CCc4ccsc4)nn3)cc2)nc2ccsc12,inhibition,[7],1.9%
Cc1ccccc1Cn1cc(-c2ccc(Nc3nc(Oc4c(C)cc(C#N)cc4C)c4sccc4n3)cc2)nn1,inhibition,[7],33.3%
Cc1cc(C#N)cc(C)c1Oc1nc(Nc2ccc(-c3cn(CC(=O)Nc4ccc(S(C)(=O)=O)cc4)nn3)cc2)nc2ccsc12,inhibition,[7],23.4%
Cc1cc(C#N)cc(C)c1Oc1nc(Nc2ccc(-c3cn(CC(=O)NC4CC4)nn3)cc2)nc2ccsc12,inhibition,[7],29.7%
Cc1cc(C#N)cc(C)c1Oc1nc(Nc2ccc(-c3cn(CC(=O)N4CCCC4)nn3)cc2)nc2ccsc12,inhibition,[7],12.8%
O=C1Nc2ccc(Cl)cc2[C@@](C#CC2CC2)(C(F)(F)F)O1 [EFAVIRENZ],EC50,[1],430 nM
same,EC50,[2],80 nM
same,EC50,[4],130 nM
same,EC50,[6],430 nM
same,EC50,[8],8 nM
same,CC50 at 120 h,[10],> 635000 nM
same,EC50,[11],500 nM
Cc1cc(C#N)cc(C)c1Oc1nc(Nc2ccc(-c3cn(Cc4cccc(C#N)c4)nn3)cc2)nc2ccsc12,inhibition,[7],24.7%
COc1cccc(Cn2cc(-c3ccc(Nc4nc(Oc5c(C)cc(C#N)cc5C)c5sccc5n4)cc3)nn2)c1,inhibition,[7],0.4%
Cc1cn([C@H]2C[C@H](N=[N+]=[N-])[C@@H](CO)O2)c(=O)[nH]c1=O [ZIDOVUDINE],EC50,[1],30 nM
same,EC50,[4],30 nM
same,EC50,[5],40 nM
same,EC50,[6],30 nM
same,EC50,[8],30 nM
same,EC50,[9],30 nM
same,CC50 at 120 h,[10],> 749000 nM
same,EC50,[11],20 nM
Cc1cccc(Cn2cc(-c3ccc(Nc4nc(Oc5c(C)cc(C#N)cc5C)c5sccc5n4)cc3)nn2)c1,inhibition,[7],21%
Cc1cc(C#N)cc(C)c1Oc1nc(Nc2ccc(-c3cn(CC(=O)Nc4ccc(Br)cc4)nn3)cc2)nc2ccsc12,inhibition,[7],4.1%
Cc1cc(C#N)cc(C)c1Oc1nc(Nc2ccc(-c3cn(CC(=O)N4CCOCC4)nn3)cc2)nc2ccsc12,inhibition,[7],21.8%
Cc1cc(C#N)cc(C)c1Oc1nc(Nc2ccc(-c3cn(CS(=O)(=O)c4ccccc4)nn3)cc2)nc2ccsc12,inhibition,[7],25.6%
Cc1cc(C)c(-n2cc(-c3ccc(Nc4nc(Oc5c(C)cc(C#N)cc5C)c5sccc5n4)cc3)nn2)c(C)c1,inhibition,[7],4.9%
Cc1cc(C#N)cc(C)c1Oc1nc(Nc2ccc(-c3cn(CCc4ccccc4)nn3)cc2)nc2ccsc12,inhibition,[7],27.1%
Cc1cc(C#N)cc(C)c1Oc1nc(Nc2ccc(-c3cn(Cc4ccc([N+](=O)[O-])cc4)nn3)cc2)nc2ccsc12,inhibition,[7],1.6%
Cc1cc(C#N)cc(C)c1Oc1nc(Nc2ccc(-c3cn(Cc4ccccc4[N+](=O)[O-])nn3)cc2)nc2ccsc12,inhibition,[7],24.8%
